Assays:
[1] = tested on: monocytic THP1 cells infected with HIV VSV-G pseudotyped GFP-NEF reporter virus; assay: cells; format: cell-based; settings: Human immunodeficiency virus 1, THP-1, 24 h
[2] = tested on: CD4 cells, isolated from healthy donor PMBCs, infected with HIV VSV-G pseudotyped GFP-GAG reporter virus; assay: tissue or blood; format: cell-based; settings: Homo sapiens, 72 h

SMILES | EC50 [1] [nM] | EC50 [2] [nM]
Cc1nc2nc(NC34CC(C#N)(C3)C4)nc(Oc3c(C)cc(/C=C/C#N)cc3C)c2s1 [Compound 124, 3-[[7-[4-[(E)-2-cyanovinyl]-2,6-dimethyl-phenoxy]-2-methyl-thiazolo[4,5-d]pyrimidin-5-yl]amino]bicyclo[11.1.1]pentane-1-carbonitrile] | 61.7 | 27
Cc1cc(/C=C/C#N)cc(C)c1Oc1nc(NC23CC(C#N)(C2)C3)nc2cc[nH]c12 [Compound 115, (E)-3-((4-(4-(2-cyanovinyl)-2,6-dimethylphenoxy)-5H-pyrrolo[3,2-d]pyrimidin-2-yl)amino)bicyclo[1.1.1]pentane-1-carbonitrile] | 99.4 | 111
Cc1cc(/C=C/C#N)cc(C)c1Oc1nc(NC23CC(C#N)(C2)C3)nc2nc(C3CCC3)[nH]c12 [Compound 50, (E)-3-((6-(4-(2-cyanovinyl)-2,6-dimethylphenoxy)-8-cyclobutyl-7H-purin-2-yl)amino)bicyclo[1.1.1]pentane-1-carbonitrile] | 166 | 151
Cc1cc(/C=C/C#N)cc(C)c1Oc1nc(NC23CC(C#N)(C2)C3)nc2c1c(C)nn2C [Compound 148, (E)-3-((4-(4-(2-cyanovinyl)-2,6-dimethylphenoxy)-1,3-dimethyl-1H-pyrazolo[3,4-d]pyrimidin-6-yl)amino)bicyclo[1.1.1]pentane-1-carbonitrile] | 48.1 | 41
Cc1cc(/C=C/C#N)cc(C)c1Oc1nc(NC23CC(C#N)(C2)C3)nc2c1CN(C)C2 [Compound 150, (E)-3-((4-(4-(2-cyanovinyl)-2,6-dimethylphenoxy)-6-methyl-6,7-dihydro-5H-pyrrolo[3,4-d]pyrimidin-2-yl)amino)bicyclo[1.1.1]pentane-1-carbonitrile] | 99.2 | 110
Cc1cc(/C=C/C#N)cc(C)c1Oc1nc(NC23CC(C#N)(C2)C3)nc2c1cnn2C [Compound 128, 3-[[4-[4-[(E)-2-cyanovinyl]-2,6-dimethyl-phenoxy]-1-methyl-pyrazolo[3,4-d]pyrimidin-6-yl]amino]bicyclo[11.1.1]pentane-1-carbonitrile] | 131 | 106
COc1ccc(Cn2cnc3nc(NC45CC(C#N)(C4)C5)nc(Oc4c(C)cc(/C=C/C#N)cc4C)c32)cc1 [Compound 43, (E)-3-((6-(4-(2-cyanovinyl)-2,6-dimethylphenoxy)-7-(4-methoxybenzyl)-7H-purin-2-yl)amino)bicyclo[1.1.1]pentane-1-carbonitrile] | 90.5 | 87.7
Cc1cc(/C=C/C#N)cc(C)c1Oc1nc(NC23CC(C#N)(C2)C3)nc2nn(C)cc12 [Compound 120, 3-[[4-[4-[(E)-2-cyanovinyl]-2,6-dimethyl-phenoxy]-2-methyl-pyrazolo[3,4-d]pyrimidin-6-yl]amino]bicyclo[1.1.1]pentane-1-carbonitrile] | 21.1 | 22.9
Cc1cc(/C=C/C#N)cc(C)c1Oc1nc(NC23CC(C#N)(C2)C3)nc2nc(-c3cnn(C)c3)[nH]c12 [Compound 64, (E)-3-((6-(4-(2-cyanovinyl)-2,6-dimethylphenoxy)-8-(1-methyl-1H-pyrazol-4-yl)-7H-purin-2-yl)amino)bicyclo[1.1.1]pentane-1-carbonitrile] | 123 | 274
Cc1nc2c(Nc3c(C)cc(/C=C/C#N)cc3C)nc(NC34CC(C#N)(C3)C4)nc2s1 [Compound 55, (E)-3-((7-((4-(2-cyanovinyl)-2,6-dimethylphenyl)amino)-2-methylthiazolo[5,4-d]pyrimidin-5-yl)amino)bicyclo[1.1.1]pentane-1-carbonitrile] | 130 | 25.9
Cc1cc(/C=C/C#N)cc(C)c1Oc1nc(NC23CC(C#N)(C2)C3)nc2c1ncn2C(C)C [Compound 113, (E)-3-((6-(4-(2-cyanovinyl)-2,6-dimethylphenoxy)-9-isopropyl-9H-purin-2-yl)amino)bicyclo[1.1.1]pentane-1-carbonitrile] | 168 | 102
Cc1cc(/C=C/C#N)cc(C)c1OC1=NC(NC23CC(C#N)(C2)C3)=NC2N=CN(C)C12 (stereo not drawn) [Compound 89, (E)-3-((6-(4-(2-cyanovinyl)-2,6-dimethylphenoxy)-7-methyl-4,5-dihydro-7H-purin-2-yl)amino)bicyclo[1.1.1]pentane-1-carbonitrile] | 24.4 | 16.6
Cc1cc(/C=C/C#N)cc(C)c1Nc1nc(NC23CC(C#N)(C2)C3)nc2scnc12 [Compound 23, (E)-3-((7-((4-(2-cyanovinyl)-2,6-dimethylphenyl)amino)thiazolo[5,4-d]pyrimidin-5-yl)amino)bicyclo[1.1.1]pentane-1-carbonitrile] | 31.7 | 17
Cc1cc(/C=C/C#N)cc(Cl)c1Oc1nc(NC23CC(C#N)(C2)C3)nc2[nH]nc(C)c12 [Compound 85, (E)-3-((4-(2-chloro-4-(2-cyanovinyl)-6-methylphenoxy)-3-methyl-1H-pyrazolo[3,4-d]pyrimidin-6-yl)amino)bicyclo[1.1.1]pentane-1-carbonitrile] |  | 20.9
Cc1cc(/C=C/C#N)cc(C)c1Oc1nc(NC23CC(C#N)(C2)C3)nc2c1nnn2C [Compound 129, 3-[[7-[4-[(E)-2-cyanovinyl]-2,6-dimethyl-phenoxy]-3-methyl-triazolo[4,5-d]pyrimidin-5-yl]amino]bicyclo[11.1.1]pentane-1-carbonitrile] | 168 | 131
Cc1cc(/C=C/C#N)cc(C)c1Oc1nc(NC23CC(C#N)(C2)C3(F)F)nc2nn(C)cc12 [Compound 76, (E)-3-((4-(4-(2-cyanovinyl)-2,6-dimethylphenoxy)-2-methyl-2H-pyrazolo[3,4-d]pyrimidin-6-yl)amino)-2,2-difluorobicyclo[1.1.1]pentane-1-carbonitrile] | 25.3 | 19.3
COc1ccc(Cn2cnc3c(Oc4c(C)cc(/C=C/C#N)cc4C)nc(NC45CC(C#N)(C4)C5)nc32)cc1 [Compound 42, (E)-3-((6-(4-(2-cyanovinyl)-2,6-dimethylphenoxy)-9-(4-methoxybenzyl)-9H-purin-2-yl)amino)bicyclo[1.1.1]pentane-1-carbonitrile] | 518 | 894
Cc1cc(/C=C/C#N)cc(C)c1Oc1nc(NC23CC(C#N)(C2)C3)nc2[nH]c(=O)[nH]c12 [Compound 27, (E)-3-((6-(4-(2-cyanovinyl)-2,6-dimethylphenoxy)-8-oxo-8,9-dihydro-7H-purin-2-yl)amino)bicyclo[1.1.1]pentane-1-carbonitrile] | 68.3 | 99.4
Cc1cc(/C=C/C#N)cc(C)c1Oc1nc(NC23CC(C#N)(C2)C3)nc2onc(C)c12 [Compound 142, (E)-3-((4-(4-(2-cyanovinyl)-2,6-dimethylphenoxy)-3-methylisoxazolo[5,4-d]pyrimidin-6-yl)amino)bicyclo[1.1.1]pentane-1-carbonitrile] | 24 | 17.6
Cc1cc(/C=C/C#N)cc(C)c1Oc1nc(NC23CC(C#N)(C2)C3)nc2c1C[N+](C)(C)C2 [Compound 152, (E)-2-((3-cyanobicyclo[1.1.1]pentan-1-yl)amino)-4-(4-(2-cyanovinyl)-2,6-dimethylphenoxy)-6,6-dimethyl-6,7-dihydro-5H-pyrrolo[3,4-d]pyrimidin-6-ium] |  | 3360
Cc1cc(/C=C/C#N)cc(C)c1Oc1nc(NC23CC(C#N)(C2)C3)nc2nc(C(C)(C)O)[nH]c12 [Compound 60, (E)-3-((6-(4-(2-cyanovinyl)-2,6-dimethylphenoxy)-8-(2-hydroxypropan-2-yl)-7H-purin-2-yl)amino)bicyclo[1.1.1]pentane-1-carbonitrile] | 373 | 175
Cc1cc(/C=C/C#N)cc(C)c1Oc1nc(NC23CC(C#N)(C2)C3)nc2scnc12 [Compound 56, (E)-3-((7-(4-(2-cyanovinyl)-2,6-dimethylphenoxy)thiazolo[5,4-d]pyrimidin-5-yl)amino)bicyclo[1.1.1]pentane-1-carbonitrile] | 142 | 96.6
Cc1cc(/C=C/C#N)cc(C)c1Oc1nc(NC23CC(C#N)(C2)C3(F)F)nc2[nH]nc(C)c12 [Compound 77, (E)-3-((4-(4-(2-cyanovinyl)-2,6-dimethylphenoxy)-3-methyl-1H-pyrazolo[3,4-d]pyrimidin-6-yl)amino)-2,2-difluorobicyclo[1.1.1]pentane-1-carbonitrile] |  | 28.2
Cc1cc(/C=C/C#N)cc(C)c1Oc1nc(NC23CC(C#N)(C2)C3)nc2c1CCO2 [Compound 118, (E)-3-((4-(4-(2-cyanovinyl)-2,6-dimethylphenoxy)-5,6-dihydrofuro[2,3-d]pyrimidin-2-yl)amino)bicyclo[1.1.1]pentane-1-carbonitrile] |  | 80.4
Cc1cc(/C=C/C#N)cc(C)c1Oc1nc(NC23CC(C4COC4)(C2)C3)nc2[nH]nc(C)c12 [Compound 154, (E)-3-(3,5-dimethyl-4-((3-methyl-6-((3-(oxetan-3-yl)bicyclo[1.1.1]pentan-1-yl)amino)-1H-pyrazolo[3,4-d]pyrimidin-4-yl)oxy)phenyl)acrylonitrile] | 235 | 324
Cc1nc2nc(NC34CC(C#N)(C3)C4)nc(Oc3c(C)cc(/C=C/C#N)cc3C)c2[nH]1 [Compound 14, (E)-3-((6-(4-(2-cyanovinyl)-2,6-dimethylphenoxy)-8-methyl-7H-purin-2-yl)amino)bicyclo[1.1.1]pentane-1-carbonitrile] | 81.3 | 84.2
Cc1cc(/C=C/C#N)cc(C)c1Oc1nc(NC23CC(C#N)(C2)C3)nc2[nH]ncc12 [Compound 10, (E)-3-((4-(4-(2-cyanovinyl)-2,6-dimethylphenoxy)-1H-pyrazolo[3,4-d]pyrimidin-6-yl)amino)bicyclo[1.1.1]pentane-1-carbonitrile] | 65.9 | 54.7
Cc1cc(/C=C/C#N)cc(C)c1Oc1nc(NC23CC(C#N)(C2)C3)nc2ncsc12 [Compound 75, (E)-3-((7-(4-(2-cyanovinyl)-2,6-dimethylphenoxy)thiazolo[4,5-d]pyrimidin-5-yl)amino)bicyclo[1.1.1]pentane-1-carbonitrile] |  | 55
